# What was measured:
# [1] = system: CCl4-induced hepatotoxicity; assay: Protection against CCl4-induced hepatotoxicity (mice); type: in vivo, mice (four-week-old male, dd strain); details: 250 mg/kg oral, average of 5 to 6 mice; for Liver damage index: CCl4 0.05 ml/kg oral after 6 h, 24 h after CCl4, scale 0 Normal, 2 Slightly recognized, 4 Clearly observable damage, 6 Heavy damage, CCl4 alone 5.2, control 0; for p-GPT: plasma, 24 h after CCl4 0.05 ml/kg oral, values over 1,000 regarded as 1,000, CCl4 alone >1,000, control 35
# Description: Carbon tetrachloride (CCl4) administration induces centrilobular necrosis of the liver associated with loss of diphosphopyridine nucleotide, hepatic glycogen, coenzyme A and increase in neutral fat. Release of several enzymes from the hepatocytes, and increase of enzyme activities in the plasma are recognized as the result of the damage of the liver. A suitable means for evaluating the degree of damage induced by CCl4 or the degree of protection afforded by drugs is to study the plasma glutamic-pyruvic transaminase(p-GPT) activity.
# Methods: The test compounds were dissolved or suspended in olive oil and administered orally at the dose of 250 mg/kg to the mice (Four-week-old male mice-dd strain). After 6 hours, CCl4 was administered orally (0.05 ml/kg as olive oil solution). Animals were killed 24 hours after CCl4 administration, and the liver was grossly observed. The plasma was obtained by centrifugation. Activities of p-GPT were determined by the method of Reitman and Frankels and expressed in Karmen units. Score for liver damage index was as follows:
# Each figure indicates average of 5 to 6 mice. Values of p-GPT over 1,000 Karmen unit regarded as 1,000 for calculation of average for convenience.
# [2] = system: alcohol metabolic function of liver; assay: Effect on concentration of ethylalcohol in the blood (mice); type: in vivo; details: 250 mg/kg oral pre-treatment, ethylalcohol 1,000 mg/kg oral after 6 h
# Description: The test compounds are dissolved or suspended in olive oil and administered orally at the dose of 250 mg/kg to the mice. After 6 hours, 1,000 mg/kg of ethylalcohol was given orally. Blood was taken in a capillary from caudal vein at the time indicated in the results. The plasma was obtained by centrifugation. The concentration of ethylalcohol in the plasma was measured by FID type gas liquid chromatography. Five mice were used for each group.
# [3] = system: thioacetamide-induced hepatotoxicity; assay: Therapeutic effect against thioacetamide-induced hepatotoxicity, BSP test (rats); type: in vivo, rats (Sprague Dawley strain)
# Description: In the tests of this Example, TAA was repeatedly administered to animals to prepare test animals suffering from somewhat chronic liver damages, and then the present compounds were administered thereto to know whether or not the compounds were effective against chronic hepatitis.
# The degree of the liver damage and the therapeutic effects of the compounds were evaluated according to BSP test. The BSP test is a method in which BSP (sulfobromophthalein sodium), a dye known to be quickly metabolized in and excreted from the liver, is intravenously injected into animals and, after a definite period of time, the blood is taken out to measure the amount of BSP remaining in the plasma. In case the animals are suffering from the liver damage, the dye will remain, according to the degree of the damage, at the stage where a major portion of BSP is metabolized and excreted in the case of normal animals. Five groups of rats (Sprague Dawley strain) were treated as follows:
# Group A: The rats were orally administered with 100 mg/kg of thioacetamide,at 3 days intervals for 36 days (12 times of the administration), then were submitted for 10 days to a normal diet.
# Group B: The rats were orally administered with 100 mg/kg of thioacetamide at 3 days intervals for 36 days (12 times of the administration), then were submitted for 10 days to the normal diet + 0.2% of compound 4.
# Group C: The rats were orally administered with 100 mg/kg of thioacetamide at 3 days intervals for 36 days (12 times of the administration) then were submitted for 10 days to the normal diet + 0.2% of compound 2.
# Group D: The rats were orally administered with 100 mg/kg of thioacetamide at 3 days intervals for 36 days((12 times of the administration) then were submitted for 10 days to the normal diet + 0.2% of anethol trithion.
# Group E: The rats were submitted to the normal diet as the control.
# Five rate were sacrificed from each group at appropriate intervals for BSP (sulfobromophthalein) test, the results of which were shown as amounts (mg) of BSP remaining in 1 dl of plasma.
# [4] = Acute oral toxicity (LD50) to male mice; details: mouse, in vivo
# Description: For example the LD50 values of the compounds 4, 11 and 17 in Table 1 are more than 5,000 mg/kg. Further, these compounds have no detrimental effects on test animals administered therewith, so far as the doses thereof are within an ordinary administration range.
# [5] = system: glucose metabolic function of liver; assay: Effect on glucose metabolism, blood sugar (mice); type: in vivo; details: 250 mg/kg oral pre-treatment, glucose 4.0 g/kg oral after 6 h
# Description: Methods: The test compounds dissolved in olive oil and administered orally at the dose of 250 mg/kg to the mice. After 6 hours, 4.0 g/kg of glucose was orally administered. The same amount of glucose was given to the control animals. 0.02 ml of blood was taken from caudal vein of the mice at 30, 60, 90 and 120 min. after glucose administration. Blood sugar was measured by the procedure of SomogyiNelson. Number of animals used was 5 to 6 mice for each treatment.
# [6] = 2 days of normal diet + 0.2% compound after 12 TAA administrations, TAA only 12.7±3.7, normal 0.4±0.1
# [7] = 5 days of normal diet + 0.2% compound after 12 TAA administrations, TAA only 8.7±1.9
# [8] = 10 days of normal diet + 0.2% compound after 12 TAA administrations, TAA only 1.4±0.4, normal 0.6±0.1
smiles,measurement,setting,value
"CC(C)OC(=O)C(C(=O)OC(C)C)=C1SCS1 [Compound 4, Diisopropyl 1,3-dithietan-2-ylidene malonate]",Liver damage index,[1],0.0
same,p-GPT,[1],20 Karmen units
same,Concentration of Ethylalcohol in Plasma,"[2]; 0 min, control 27 ± 17",10 ± 3 ppm.
same,Concentration of Ethylalcohol in Plasma,"[2]; 5 min, control 875 ± 203",695 ± 122 ppm.
same,Concentration of Ethylalcohol in Plasma,"[2]; 15 min, control 810 ± 191",637 ± 113 ppm.
same,Concentration of Ethylalcohol in Plasma,"[2]; 30 min, control 690 ± 214",410 ± 77 ppm.
same,Concentration of Ethylalcohol in Plasma,"[2]; 60 min, control 167 ± 76",15 ± 8 ppm.
same,BSP remaining in plasma,[3]; [6],7.1 ± 0.8 mg/dL
same,BSP remaining in plasma,[3]; [7],3.2 ± 0.6 mg/dL
same,BSP remaining in plasma,[3]; [8],0.6 ± 0.2 mg/dL
same,LD50,[4],> 5000 mg/kg
same,Blood Sugar,"[5]; 0 min, control 145 ± 11.8",168 ± 20.4 mg/dL
same,Blood Sugar,"[5]; 30 min, control 311 ± 21.9",280 ± 10.8 mg/dL
same,Blood Sugar,"[5]; 60 min, control 290 ± 14.6",215 ± 20.1 mg/dL
same,Blood Sugar,"[5]; 90 min, control 263 ± 13.1",164 ± 16.5 mg/dL
same,Blood Sugar,"[5]; 120 min, control 251 ± 13.5",165 ± 15.3 mg/dL
COC(=O)C(C(=O)OC)=C1SCS1 [Compound 1],Liver damage index,[1],1.5
same,p-GPT,[1],341 Karmen units
"NC(=O)CCCCC1CCSS1 (stereo not shown) [Thioctic acid amide, reference compound]",Liver damage index,[1],4.8
same,p-GPT,[1],763 Karmen units
CCOC(=O)C(C(=O)OCC)=C1SCCCCS1 [Compound 15],Liver damage index,[1],3.2
same,p-GPT,[1],533 Karmen units
"CCCOC(=O)C(C(=O)OCCC)=C1SCCCS1 [Compound 10, Di-n-propyl 1,3-dithian-2-ylidene malonate]",Liver damage index,[1],2.2
same,p-GPT,[1],50 Karmen units
same,Concentration of Ethylalcohol in Plasma,"[2]; 0 min, control 27 ± 17",13 ± 4 ppm.
same,Concentration of Ethylalcohol in Plasma,"[2]; 5 min, control 875 ± 203",753 ± 78 ppm.
same,Concentration of Ethylalcohol in Plasma,"[2]; 15 min, control 810 ± 191",698 ± 95 ppm.
same,Concentration of Ethylalcohol in Plasma,"[2]; 30 min, control 690 ± 214",451 ± 114 ppm.
same,Concentration of Ethylalcohol in Plasma,"[2]; 60 min, control 167 ± 76",12 ± 11 ppm.
same,Blood Sugar,"[5]; 0 min, control 145 ± 11.8",148 ± 14.7 mg/dL
same,Blood Sugar,"[5]; 30 min, control 311 ± 21.9",267 ± 21.2 mg/dL
same,Blood Sugar,"[5]; 60 min, control 290 ± 14.6",222 ± 18.3 mg/dL
same,Blood Sugar,"[5]; 90 min, control 263 ± 13.1",162 ± 14.4 mg/dL
same,Blood Sugar,"[5]; 120 min, control 251 ± 13.5",148 ± 18.8 mg/dL
"CC(C)OC(=O)C(C(=O)OC(C)C)=C1SCCCCS1 [Compound 17, diisopropyl 1,3-dithiepan-2-ylidene malonate]",Liver damage index,[1],3.6
same,p-GPT,[1],688 Karmen units
same,LD50,[4],> 5000 mg/kg
CCCCCOC(=O)C(C(=O)OCCCCC)=C1SCS1 [Compound 6],Liver damage index,[1],1.2
same,p-GPT,[1],167 Karmen units
"CCCOC(=O)C(C(=O)OCCC)=C1SCS1 [Compound 3, Di-n-propyl 1,3-dithietan-2-ylidene malonate]",Liver damage index,[1],0.2
same,p-GPT,[1],22 Karmen units
"COc1ccc(-c2cc(=S)ss2)cc1 [Anetol trithion, anethol trithion, reference compound]",Liver damage index,[1],1.6
same,p-GPT,[1],38 Karmen units
same,BSP remaining in plasma,[3]; [6],9.7 ± 4.1 mg/dL
same,BSP remaining in plasma,[3]; [7],7.3 ± 3.4 mg/dL
same,BSP remaining in plasma,[3]; [8],0.9 ± 0.1 mg/dL
CCCCOC(=O)C(C(=O)OCCCC)=C1SCCCCS1 [Compound 18],Liver damage index,[1],0.5
same,p-GPT,[1],41 Karmen units
CCCOC(=O)C(C(=O)OCCC)=C1SCCCCS1 [Compound 16],Liver damage index,[1],3.0
same,p-GPT,[1],710 Karmen units
CCCCOC(=O)C(C(=O)OCCCC)=C1SCCCS1 [Compound 12],Liver damage index,[1],1.8
same,p-GPT,[1],284 Karmen units
COC(=O)C(C(=O)OC)=C1SCCCCS1 [Compound 14],Liver damage index,[1],3.5
same,p-GPT,[1],762 Karmen units
"CC(C)OC(=O)C(C(=O)OC(C)C)=C1SCCCS1 [Compound 11, Diisopropyl 1,3-dithian-2-ylidene malonate]",Liver damage index,[1],2.3
same,p-GPT,[1],215 Karmen units
same,LD50,[4],> 5000 mg/kg
CCOC(=O)C(C(=O)OC(C)(C)C)=C1SCCCS1 [Compound 13],Liver damage index,[1],1.4
same,p-GPT,[1],125 Karmen units
CCCCCOC(=O)C(C(=O)OCCCCC)=C1SCCCCS1 [Compound 19],Liver damage index,[1],0.7
same,p-GPT,[1],157 Karmen units
CCOC(=O)C(C(=O)OC(C)C)=C1SCS1 [Compound 7],Liver damage index,[1],0.6
same,p-GPT,[1],54 Karmen units
CCOC(=O)C(C(=O)OC(C)CC)=C1SCCCCS1 (stereo not shown) [Compound 20],Liver damage index,[1],1.0
same,p-GPT,[1],188 Karmen units
same,Concentration of Ethylalcohol in Plasma,"[2]; 0 min, control 27 ± 17",15 ± 2 ppm.
same,Concentration of Ethylalcohol in Plasma,"[2]; 5 min, control 875 ± 203",710 ± 134 ppm.
same,Concentration of Ethylalcohol in Plasma,"[2]; 15 min, control 810 ± 191",652 ± 143 ppm.
same,Concentration of Ethylalcohol in Plasma,"[2]; 30 min, control 690 ± 214",404 ± 93 ppm.
same,Concentration of Ethylalcohol in Plasma,"[2]; 60 min, control 167 ± 76",18 ± 6 ppm.
CCOC(=O)C(C(=O)OCC)=C1SCCCS1 [Compound 9],Liver damage index,[1],2.2
same,p-GPT,[1],366 Karmen units
COC(=O)C(C(=O)OC)=C1SCCCS1 [Compound 8],Liver damage index,[1],2.8
same,p-GPT,[1],437 Karmen units
CCOC(=O)C(C(=O)OCC)=C1SCS1 [Compound 2],Liver damage index,[1],0.3
same,p-GPT,[1],29 Karmen units
same,Concentration of Ethylalcohol in Plasma,"[2]; 0 min, control 27 ± 17",11 ± 4 ppm.
same,Concentration of Ethylalcohol in Plasma,"[2]; 5 min, control 875 ± 203",714 ± 167 ppm.
same,Concentration of Ethylalcohol in Plasma,"[2]; 15 min, control 810 ± 191",655 ± 102 ppm.
same,Concentration of Ethylalcohol in Plasma,"[2]; 30 min, control 690 ± 214",426 ± 101 ppm.
same,Concentration of Ethylalcohol in Plasma,"[2]; 60 min, control 167 ± 76",15 ± 10 ppm.
same,BSP remaining in plasma,[3]; [6],7.5 ± 1.2 mg/dL
same,BSP remaining in plasma,[3]; [7],3.8 ± 0.4 mg/dL
same,BSP remaining in plasma,[3]; [8],0.7 ± 0.1 mg/dL
same,Blood Sugar,"[5]; 0 min, control 145 ± 11.8",142 ± 22.8 mg/dL
same,Blood Sugar,"[5]; 30 min, control 311 ± 21.9",258 ± 17.5 mg/dL
same,Blood Sugar,"[5]; 60 min, control 290 ± 14.6",229 ± 18.7 mg/dL
same,Blood Sugar,"[5]; 90 min, control 263 ± 13.1",183 ± 18.1 mg/dL
same,Blood Sugar,"[5]; 120 min, control 251 ± 13.5",150 ± 20.4 mg/dL
CCCCOC(=O)C(C(=O)OCCCC)=C1SCS1 [Compound 5],Liver damage index,[1],1.2
same,p-GPT,[1],158 Karmen units

# — patent US4022907A, “Pharmaceutical compositions containing 1,3-dithiacycloalkylidene malonates” (Nihon Nohyaku Co. Ltd., priority 1975, dated 1977)
